Test results: patent publication US20230002346A1, “NEW COMPOUNDS AND METHODS” (BenevolentAl Bio Limited, priority 2019, published 2023)
pIC50: −log10 of the molar value. In brackets after ≈: the same amount, converted by molar mass.

Test system: not listed separately
Experiment: Kinetic aqueous solubility assay
Assay type: physicochemical
Details: aqueous buffer, kinetic from dmso stock, 0.05M potassium phosphate buffer pH 7.4, 250 μM spike, RT
Protocol: Using a 10 mM stock solution of test compound in 100% DMSO, test compounds were spiked into 0.05M potassium phosphate buffer (pH 7.4) at a final concentration of 250 μM. Samples in buffer (n=2 aqueous samples, in 96-well plates) were allowed to equilibrate at RT on an orbital shaker for 30 min (300 rpm) to induce precipitation of test compounds. The appearance of each sample was determined by visual examination and noted (clear, cloudy, precipitate observed etc.). […] The concentration of compound in phosphate buffer filtrate was determined by comparing the UV absorbance peak area of each replicate against that of the calibration standards. […] Compounds of the invention have much improved solubility compared to the reference examples.

SMILES	solubility at 30 min
O=C(Nc1ccc(OC(F)(F)F)cc1)c1ccc(=O)n(CCN2CCOCC2)c1 [Example 2, 1-(2-Morpholinoethyl)-6-oxo-N-[4-(trifluoromethoxy)phenyl]pyridine-3-carboxamide]	215 µM (≈ 88.4 µg/mL)
Cn1ccc(-n2cc(C(=O)Nc3ccc(OC(F)(F)Cl)cc3)ccc2=O)n1 [Example 3, N-[4-(Chlorodifluoromethoxy)phenyl]-1-(1-methyl-1H-pyrazol-3-yl)-6-oxo-1,6-dihydropyridine-3-carboxamide]	140 µM (≈ 55.3 µg/mL)
O=C(Nc1ccc(OC(F)(F)Cl)cc1)c1ccc(=O)n([C@H]2CCOC2)c1 [Example 4, N-[4-[Chloro(difluoro)methoxy]phenyl]-6-oxo-1-[(3S)-tetrahydrofuran-3-yl]pyridine-3-carboxamide]	180 µM (≈ 69.3 µg/mL)
CN1CC[C@@H](n2cc(C(=O)Nc3ccc(OC(F)(F)Cl)cc3)ccc2=O)C1 [Example 16, N-[4-[Chloro(difluoro)methoxy]phenyl]-1-[(3R)-1-methylpyrrolidin-3-yl]-6-oxo-pyridine-3-carboxamide]	180 µM (≈ 71.6 µg/mL)
Cn1nccc1-n1cc(C(=O)Nc2ccc(OC(F)(F)Cl)cc2)ccc1=O [Example 25, N-[4-(Chlorodifluoromethoxy)phenyl]-1-(1-methyl-1H-pyrazol-5-yl)-6-oxo-1,6-dihydropyridine-3-carboxamide]	170 µM (≈ 67.1 µg/mL)
O=C(Nc1ccc(OC(F)(F)Cl)cc1)c1ccc(=O)n(-c2cnn(C(F)F)c2)c1 [Example 27, N-[4-(Chlorodifluoromethoxy)phenyl]-1-[1-(difluoromethyl)-1H-pyrazol-4-yl]-6-oxo-1,6-dihydropyridine-3-carboxamide]	100 µM (≈ 43.1 µg/mL)
COc1cc(C(=O)Nc2ccc(OC(F)(F)Cl)cc2)cn(-c2cncnc2)c1=O [Example 58, N-[4-[Chloro(difluoro)methoxy]phenyl]-5-methoxy-6-oxo-1-pyrimidin-5-yl-pyridine-3-carboxamide]	180 µM (≈ 76.1 µg/mL)
Cc1cc(C(=O)Nc2ccc(OC(F)(F)Cl)cc2)cn(-c2cncnc2)c1=O [Example 59, N-[4-[Chloro(difluoro)methoxy]phenyl]-5-methyl-6-oxo-1-pyrimidin-5-yl-pyridine-3-carboxamide]	190 µM (≈ 77.3 µg/mL)
O=C(Nc1ccc(OC(F)(F)Cl)cc1)c1cc(N2CCOCC2)c(=O)n(-c2cncnc2)c1 [Example 60, N-[4-(Chlorodifluoromethoxy)phenyl]-5-(morpholin-4-yl)-6-oxo-1-(pyrimidin-5-yl)-1,6-dihydropyridine-3-carboxamide]	210 µM (≈ 100 µg/mL)
Cn1cc(C(=O)Nc2ccc(OC(F)(F)Cl)cc2)cc(-c2cncnc2)c1=O [Example 82, N-[4-(Chlorodifluoromethoxy)phenyl]-1-methyl-6-oxo-5-(pyrimidin-5-yl)-1,6-dihydropyridine-3-carboxamide]	170 µM (≈ 69.2 µg/mL)
O=C(Nc1ccc(OC(F)(F)Cl)cc1)c1cccc(-c2cncnc2)c1 [Ref. ex. 2, N-[4-[Chloro(difluoro)methoxy]phenyl]-3-pyrimidin-5-ylbenzamide, reference compound]	9 µM (≈ 3.38 µg/mL)
Cc1ccc(C(=O)Nc2ccc(OC(F)(F)F)cc2)cc1-c1cccnc1 [Ref. ex. 3, 4-Methyl-3-(3-pyridyl)-N-[4-(trifluoromethoxy)phenyl]benzamide, reference compound]	56 µM (≈ 20.9 µg/mL)

Results, then the molecule that gave them:

solubility at 30 min	SMILES
140 µM (≈ 59.2 µg/mL)	COc1ncc(-n2cc(C(=O)Nc3ccc(OC(F)(F)Cl)cc3)ccc2=O)cn1 [Example 12, N-[4-[Chloro(difluoro)methoxy]phenyl]-1-(2-methoxypyrimidin-5-yl)-6-oxo-pyridine-3-carboxamide]
200 µM (≈ 81.8 µg/mL)	Cc1c(-n2cc(C(=O)Nc3ccc(OC(F)(F)Cl)cc3)ccc2=O)cnn1C [Example 18, N-[4-[Chloro(difluoro)methoxy]phenyl]-1-(1,5-dimethylpyrazol-4-yl)-6-oxo-pyridine-3-carboxamide]
100 µM (≈ 41.6 µg/mL)	N#Cc1cccc(-n2cc(C(=O)Nc3ccc(OC(F)(F)Cl)cc3)ccc2=O)c1 [Example 20, N-[4-(Chlorodifluoromethoxy)phenyl]-1-(3-cyanophenyl)-6-oxo-1,6-dihydropyridine-3-carboxamide]
140 µM (≈ 60.1 µg/mL)	Cn1ncc(-n2cc(C(=O)Nc3ccc(OC(F)(F)Cl)cc3)ccc2=O)c1Cl [Example 30, 1-(5-Chloro-1-methyl-1H-pyrazol-4-yl)-N-[4-(chlorodifluoromethoxy)phenyl]-6-oxo-1,6-dihydropyridine-3-carboxamide]
150 µM (≈ 62.5 µg/mL)	N#Cc1cncc(-n2cc(C(=O)Nc3ccc(OC(F)(F)Cl)cc3)ccc2=O)c1 [Example 55, N-[4-[Chloro(difluoro)methoxy]phenyl]-1-(5-cyano-3-pyridyl)-6-oxo-pyridine-3-carboxamide]
170 µM (≈ 69 µg/mL)	Cc1cncc(-n2cc(C(=O)Nc3ccc(OC(F)(F)Cl)cc3)ccc2=O)c1 [Example 57, N-[4-[Chloro(difluoro)methoxy]phenyl]-1-(5-methyl-3-pyridyl)-6-oxo-pyridine-3-carboxamide]
110 µM (≈ 49 µg/mL)	Cn1cc2ncc(-n3cc(C(=O)Nc4ccc(OC(F)(F)Cl)cc4)ccc3=O)cc2n1 [Example 71, N-[4-(Chlorodifluoromethoxy)phenyl]-1-{2-methyl-2H-pyrazolo[4,3-b]pyridin-6-yl}-6-oxo-1,6-dihydropyridine-3-carboxamide]

Target: T1, hERG channel (Homo sapiens, UniProt Q12809)
T1 construct: expressed in transfected cells
T1 sequence (Q12809 whole entry): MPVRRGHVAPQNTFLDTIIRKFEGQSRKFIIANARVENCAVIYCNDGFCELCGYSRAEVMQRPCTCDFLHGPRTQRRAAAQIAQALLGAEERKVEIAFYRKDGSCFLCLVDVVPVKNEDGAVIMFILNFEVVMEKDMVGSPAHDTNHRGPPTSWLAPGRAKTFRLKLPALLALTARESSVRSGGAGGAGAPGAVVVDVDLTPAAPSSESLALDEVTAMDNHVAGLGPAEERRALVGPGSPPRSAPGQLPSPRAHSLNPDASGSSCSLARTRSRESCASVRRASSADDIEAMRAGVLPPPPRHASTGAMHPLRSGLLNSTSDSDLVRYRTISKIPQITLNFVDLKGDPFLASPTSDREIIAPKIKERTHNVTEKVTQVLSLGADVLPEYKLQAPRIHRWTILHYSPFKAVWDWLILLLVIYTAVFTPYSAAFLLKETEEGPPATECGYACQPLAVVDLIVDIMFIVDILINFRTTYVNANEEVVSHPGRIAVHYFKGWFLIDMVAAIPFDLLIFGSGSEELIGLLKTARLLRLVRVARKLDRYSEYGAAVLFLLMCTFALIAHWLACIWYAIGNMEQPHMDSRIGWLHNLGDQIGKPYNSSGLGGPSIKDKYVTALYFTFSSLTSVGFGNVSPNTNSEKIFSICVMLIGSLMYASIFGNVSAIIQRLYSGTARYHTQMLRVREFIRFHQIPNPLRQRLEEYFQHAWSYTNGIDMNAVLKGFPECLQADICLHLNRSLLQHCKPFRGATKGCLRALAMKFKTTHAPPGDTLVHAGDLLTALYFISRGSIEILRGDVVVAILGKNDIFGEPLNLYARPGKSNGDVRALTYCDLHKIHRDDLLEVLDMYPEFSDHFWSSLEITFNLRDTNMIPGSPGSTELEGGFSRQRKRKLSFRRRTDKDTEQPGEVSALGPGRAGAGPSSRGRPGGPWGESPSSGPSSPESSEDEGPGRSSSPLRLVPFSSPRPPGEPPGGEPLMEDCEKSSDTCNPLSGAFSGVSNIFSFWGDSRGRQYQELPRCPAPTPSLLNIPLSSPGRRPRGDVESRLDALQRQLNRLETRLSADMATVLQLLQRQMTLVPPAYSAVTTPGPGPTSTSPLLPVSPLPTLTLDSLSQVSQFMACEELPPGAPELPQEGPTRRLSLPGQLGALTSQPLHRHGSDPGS
Experiment: hERG assay (QPatch automated patch clamp, CHO cells)
Assay type: cell-based
Details: CHO cells expressing hERG, whole-cell patch clamp, 0.003 μM to 10 μM
Text: The human ether-a-go-go related gene (hERG) potassium channel (Kv11.1) contributes to human cardiac action potential repolarisation. Inhibition of hERG channels can prolong the human cardiac action potential, resulting in QTc prolongation and potentially lethal arrhythmias (e.g. Torsade de Pointes).
Test samples were screened against the hERG channel on a QPatch 48 gigaseal automated patch clamp platform, using a Chinese Hamster Ovary (CHO) cell line stably expressing the human ether-á-go-go related gene, which encodes the hERG channel. All recordings were made in the conventional whole-cell configuration and performed at RT ([…]) using standard single hole chips (Rchip 1.5-4M0). Series resistance (4-15Mc) was compensated by >80%. Currents were elicited from a holding potential of −90 mV using the industry standard “^+40/−40” voltage protocol, which was applied at a stimulus frequency of 0.1 Hz. On achieving the whole-cell configuration, vehicle (0.1% DMSO v/v in external recording solution) was applied to each cell in two bolus additions with a 2 min recording period between each addition. Following the vehicle period, eight increasing concentrations of test sample were applied from 0.003 μM to 10 μM as a single bolus addition per test concentration, and the effects on hERG tail current amplitude measured during the 2 min recording period. Each eight-point concentration-response curve was constructed using cumulative single sample additions of each concentration to the same cell. The positive control used in this study was verapamil hydrochloride (Tocris, Cat #0654, Batch #5A/61673) and prepared to a stock concentration of 10 mM in 100% DMSO and kept as frozen aliquots.
Data analysis: All cells passing the QC parameters (i.e. >200 pA outward current, membrane resistance and rundown) are selected as ‘passed QC’ using the QPatch software, which then calculates the mean peak current for the last three sweeps at the end of each concentration application period from the cursor positions defined. Percent inhibition is calculated for each test concentration application period as the reduction in mean cursor value (peak current or charge) relative to the cursor value measured at the end of the control (i.e. vehicle) period. The percent inhibition values from each cell are used to construct concentration-response curves employing a four parametric logistic fit with 0 and 100% inhibition levels fixed at very low and very high concentrations, respectively, and a free Hill slope factor. The IC50 (50% inhibitory concentration) and Hill coefficient are then determined, but only data from cells with Hill slopes within 0.5>nH<2.0 are included. The IC50 data reported below represents the mean (and S.D.) of at least three separate cells (N≥3). […] Compounds of the invention show reduced hERG inhibitory activity compared to the reference examples.

SMILES	pIC50
Cc1c(-n2cc(C(=O)Nc3ccc(OC(F)(F)Cl)cc3)ccc2=O)cnn1C [Example 18, N-[4-[Chloro(difluoro)methoxy]phenyl]-1-(1,5-dimethylpyrazol-4-yl)-6-oxo-pyridine-3-carboxamide]	< 5.00
Cn1cc(C(=O)Nc2ccc(OC(F)(F)F)cc2)ccc1=O [Example 26, 1-Methyl-6-oxo-N-[4-(trifluoromethoxy)phenyl]pyridine-3-carboxamide]	< 5.00
Cn1cc(C(=O)Nc2ccc(OC(F)(F)Cl)cc2)cc(-c2cncnc2)c1=O [Example 82, N-[4-(Chlorodifluoromethoxy)phenyl]-1-methyl-6-oxo-5-(pyrimidin-5-yl)-1,6-dihydropyridine-3-carboxamide]	< 5.00
O=C(Nc1ccc(OC(F)(F)Cl)cc1)c1cccc(-c2cncnc2)c1 [Ref. ex. 2, N-[4-[Chloro(difluoro)methoxy]phenyl]-3-pyrimidin-5-ylbenzamide, reference compound]	5.72
Cc1ccc(C(=O)Nc2ccc(OC(F)(F)F)cc2)cc1-c1cccnc1 [Ref. ex. 3, 4-Methyl-3-(3-pyridyl)-N-[4-(trifluoromethoxy)phenyl]benzamide, reference compound]	5.60
